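Cells were grown in 96-well plates and exposed to each compound for 48 hours at five concentrations; endpoints were interpolated linearly between bracketing concentrations, or set to the highest concentration if not reached. The concentration for 50% growth inhibition is given as GI50.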 Active and inactive are the calls of the source. Cut-off read from the data, not from the text of the source: active = GI50 up to about 1.1 µM and inactive = higher.
Experiments:
Assay in all cases: inhibition of tumour cell growth, NCI panel, 48 h
SW-620 = system: SW-620
Malme-3M = system: Malme-3M
HOP-92 = system: HOP-92
OVCAR-5 = system: OVCAR-5
HL-60 = system: HL-60
IGROV-1 = system: IGROV-1
SK-OV-3 = system: SK-OV-3
HCT-116 = system: HCT-116
MOLT-4 = system: MOLT-4
MCF7 = system: MCF7
SF-295 = system: SF-295
U-251 = system: U-251
HOP-62 = system: HOP-62
RXF 393 = system: RXF 393
OVCAR-8 = system: OVCAR-8
CAKI-1 = system: CAKI-1
COLO 205 = system: COLO 205
OVCAR-4 = system: OVCAR-4
UACC-62 = system: UACC-62
T47D = system: T47D

Measured: GI50

COc1ccc(C2COc3cc(O)c(O)cc3C2)cc1 (stereo not given)
inactive: SW-620 9.06 µM | Malme-3M 15.3 µM | HOP-92 11.6 µM | OVCAR-5 148 µM | HL-60 1.58 µM | IGROV-1 16.7 µM | SK-OV-3 86.3 µM | HCT-116 11.3 µM | MOLT-4 6.58 µM | MCF7 37.2 µM | SF-295 37.6 µM | U-251 13.7 µM | HOP-62 76.4 µM | RXF 393 6.87 µM | OVCAR-8 13.3 µM | CAKI-1 13.7 µM | COLO 205 10.6 µM | OVCAR-4 12.1 µM | UACC-62 14.1 µM

c1ccc(CSC(SCc2ccccc2)c2cccc3ccccc23)cc1
inactive: SW-620 > 10 µM | Malme-3M > 10 µM | T47D 9.73 µM | OVCAR-5 > 10 µM | HL-60 > 10 µM | IGROV-1 > 10 µM | SK-OV-3 > 10 µM | HCT-116 > 10 µM | MOLT-4 > 10 µM | MCF7 > 10 µM | SF-295 8.85 µM | U-251 > 10 µM | HOP-62 > 10 µM | RXF 393 > 10 µM | OVCAR-8 > 10 µM | CAKI-1 > 10 µM | COLO 205 > 10 µM | OVCAR-4 > 10 µM | UACC-62 > 10 µM

O=c1c(-c2ccccc2)c(SCCCN2CCCCC2)n(-c2ccccc2)c(=S)n1-c1ccccc1
inactive: SW-620 19.6 µM | Malme-3M 21.5 µM | HOP-92 12.1 µM | OVCAR-5 > 100 µM | HL-60 16.6 µM | IGROV-1 17.9 µM | SK-OV-3 19.8 µM | MOLT-4 18.2 µM | MCF7 15.6 µM | SF-295 17.1 µM | U-251 15.6 µM | HOP-62 17.8 µM | RXF 393 14.3 µM | OVCAR-8 18.6 µM | CAKI-1 19.5 µM | COLO 205 17.6 µM | OVCAR-4 24 µM | UACC-62 16.1 µM

CC1(C)OP(=O)(O)CC1=O
inactive: SW-620 > 100 µM | Malme-3M > 100 µM | T47D > 100 µM | HOP-92 > 100 µM | OVCAR-5 > 100 µM | IGROV-1 > 100 µM | SK-OV-3 > 100 µM | HCT-116 > 100 µM | MCF7 > 100 µM | SF-295 > 100 µM | U-251 > 100 µM | HOP-62 > 100 µM | OVCAR-8 > 100 µM | CAKI-1 > 100 µM | COLO 205 > 100 µM | OVCAR-4 > 100 µM | UACC-62 > 100 µM

COc1ccc(CCCC(=O)O)c(C)c1
inactive: SW-620 59.2 µM | Malme-3M 27.2 µM | T47D 50.8 µM | HOP-92 27.4 µM | OVCAR-5 > 100 µM | HL-60 37.5 µM | IGROV-1 45.1 µM | HCT-116 > 100 µM | MOLT-4 15.7 µM | SF-295 38.8 µM | U-251 20.8 µM | HOP-62 26.4 µM | RXF 393 37.1 µM | OVCAR-8 74.6 µM | CAKI-1 17.8 µM | OVCAR-4 48.2 µM | UACC-62 36.8 µM

Cc1c2ccncc2cc2c1[nH]c1ccccc12
inactive: SW-620 2.42 µM | Malme-3M 7.05 µM | HOP-92 5.37 µM | OVCAR-5 4.34 µM | HL-60 3.41 µM | IGROV-1 6.22 µM | SK-OV-3 5.65 µM | HCT-116 2.44 µM | MOLT-4 1.98 µM | MCF7 1.57 µM | SF-295 5.02 µM | U-251 2.86 µM | HOP-62 8.71 µM | RXF 393 2.68 µM | OVCAR-8 3.44 µM | CAKI-1 3.88 µM | COLO 205 1.64 µM | OVCAR-4 6.12 µM | UACC-62 5.11 µM

N#Cc1c(-c2ccccc2)cn(C(=O)c2ccccc2)c1N
inactive: SW-620 > 100 µM | Malme-3M > 100 µM | HOP-92 > 100 µM | OVCAR-5 > 100 µM | HL-60 > 100 µM | IGROV-1 > 100 µM | SK-OV-3 > 100 µM | HCT-116 > 100 µM | MOLT-4 > 100 µM | MCF7 > 100 µM | SF-295 > 100 µM | U-251 > 100 µM | HOP-62 > 100 µM | OVCAR-8 > 100 µM | COLO 205 > 100 µM | OVCAR-4 21.3 µM | UACC-62 > 100 µM

COC1OC(=O)[C@H]2O[N+]([O-])=C(C)[C@@H]12 (stereo not given in full)
inactive: SW-620 > 100 µM | Malme-3M > 100 µM | HOP-92 > 100 µM | OVCAR-5 > 100 µM | HL-60 > 100 µM | IGROV-1 > 100 µM | SK-OV-3 > 100 µM | HCT-116 > 100 µM | MOLT-4 > 100 µM | MCF7 > 100 µM | SF-295 > 100 µM | U-251 > 100 µM | HOP-62 > 100 µM | RXF 393 > 100 µM | OVCAR-8 > 100 µM | CAKI-1 > 100 µM | COLO 205 > 100 µM | OVCAR-4 > 100 µM | UACC-62 > 100 µM
